Assay results taken from ChEMBL document CHEMBL1275491, “Role of plasma proteins in pharmacokinetics of micafungin, an antifungal antibiotic, in analbuminemic rats” (Antimicrob Agents Chemother, 2008).
Starred links: 1 amine or outer side, 2 acyl side, 3 side chain; linkers in the order of their positions; H or OH if unused. Positions of bridges follow the written chain, without caps; N, C: chain ends. Non-standard residues stand in square brackets, D forms with d. Residues, ends and D or L forms follow the SMILES beside them. *: point of attachment. hTyr(3S-OH,4S-OH,3'-OSO3H) = N[C@H](C(=O)O)[C@H](O)[C@@H](O)c1ccc(O)c(OS(=O)(=O)O)c1; Orn(4R-OH,5R-OH) = O=C([C@H](C[C@@H](O)[C@@H](O)N[*:3])N[*:1])[*:2]; Pro(3S-OH,4S-Me) = C[C@H]1CN[C@H](C(=O)O)[C@H]1O; X1 = CCCCCOc1ccc(-c2cc(-c3ccc(C(=O)*)cc3)no2)cc1; Gln(3R-OH) = NC(=O)C[C@@H](O)[C@H](N)C(=O)O; Hyp = O=C(O)[C@@H]1C[C@@H](O)CN1

Legend:
Rattus norvegicus [1] = assay: Plasma protein binding in analbuminemic Nagase rat at 1 mg/kg, iv administered as single dose by high-performance liquid chromatography; assay type: ADME, organism-based; set-up: dose 1 mg/kg, route intravenous; details: in vivo
Albumin = Albumin (Homo sapiens, UniProt P02768); assay: Binding affinity to human serum albumin in cell-free system
[2] = Volume of distribution at steady state in Sprague-Dawley rat plasma at 1 mg/kg, iv administered as single dose by high-performance liquid chromatography; assay type: ADME, organism-based; set-up: dose 1 mg/kg, route intravenous; details: read-out: Vdss
Rattus norvegicus [3] = assay: Binding affinity to gamma globulin in rat plasma at 1 mg/kg, iv administered as single dose; assay type: functional
[4] = Volume of distribution at steady state in analbuminemic Nagase rat plasma at 1 mg/kg, iv administered as single dose by high-performance liquid chromatography; assay type: ADME, organism-based; set-up: dose 1 mg/kg, route intravenous; details: read-out: Vdss
Rattus norvegicus [5] = assay: Binding affinity to HDL in rat plasma at 1 mg/kg, iv administered as single dose; assay type: ADME, organism-based; set-up: dose 1 mg/kg, route intravenous; details: in vivo
[6] = Systemic clearance in Sprague-Dawley rat plasma at 1 mg/kg, iv administered as single dose by high-performance liquid chromatography; assay type: ADME, organism-based; set-up: dose 1 mg/kg, route intravenous
[7] = Systemic clearance in analbuminemic Nagase rat plasma at 1 mg/kg, iv administered as single dose by high-performance liquid chromatography; assay type: ADME, organism-based; set-up: dose 1 mg/kg, route intravenous
Rattus norvegicus [8] = assay: Plasma protein binding in Sprague-Dawley rat at 1 mg/kg, iv administered as single dose by high-performance liquid chromatography; assay type: ADME, organism-based; set-up: dose 1 mg/kg, route intravenous; details: in vivo

Albumin, sequence (P02768 whole entry): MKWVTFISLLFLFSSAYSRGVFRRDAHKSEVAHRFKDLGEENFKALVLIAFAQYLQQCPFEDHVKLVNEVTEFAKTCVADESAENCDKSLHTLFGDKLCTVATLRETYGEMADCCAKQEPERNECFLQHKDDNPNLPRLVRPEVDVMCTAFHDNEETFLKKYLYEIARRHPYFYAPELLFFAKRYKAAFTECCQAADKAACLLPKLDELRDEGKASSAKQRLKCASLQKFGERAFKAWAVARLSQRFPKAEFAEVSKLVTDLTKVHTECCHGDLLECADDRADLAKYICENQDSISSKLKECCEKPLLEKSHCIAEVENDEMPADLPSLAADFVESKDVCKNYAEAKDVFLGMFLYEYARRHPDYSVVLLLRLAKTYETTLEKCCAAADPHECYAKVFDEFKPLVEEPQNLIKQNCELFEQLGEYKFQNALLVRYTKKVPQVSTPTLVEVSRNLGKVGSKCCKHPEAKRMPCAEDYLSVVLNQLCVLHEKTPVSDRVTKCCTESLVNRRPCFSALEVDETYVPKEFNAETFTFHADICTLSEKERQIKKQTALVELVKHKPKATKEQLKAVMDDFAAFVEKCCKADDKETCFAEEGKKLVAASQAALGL

Structure (SMILES): CCCCCOc1ccc(-c2cc(-c3ccc(C(=O)N[C@H]4C[C@@H](O)[C@@H](O)NC(=O)[C@@H]5[C@@H](O)[C@@H](C)CN5C(=O)[C@H]([C@H](O)CC(N)=O)NC(=O)[C@H]([C@H](O)[C@@H](O)c5ccc(O)c(OS(=O)(=O)O)c5)NC(=O)[C@@H]5C[C@@H](O)CN5C(=O)[C@H]([C@@H](C)O)NC4=O)cc3)no2)cc1 [MICAFUNGIN] (X1-[Orn(4R-OH,5R-OH)]T[Hyp][hTyr(3S-OH,4S-OH,3'-OSO3H)][Gln(3R-OH)][Pro(3S-OH,4S-Me)]; lactam 1-C)
- Activity (Rattus norvegicus [1]): 99.8%
- Activity (Albumin): 99.7%
- Vd [2]: 0.54 L/kg
- Activity (Rattus norvegicus [3]): 35.1%
- Vd [4]: 0.52 L/kg
- Activity (Rattus norvegicus [5]): 97.4%
- clearance [6]: 1.15 mL/min/kg
- clearance [7]: 1.2 mL/min/kg
- Activity (Rattus norvegicus [8]): 99.7%
